Patent US20230115534A1 (ARKUDA THERAPEUTICS, priority 2019, published 2023)
Counter-ions that a name gives are not always drawn.

System: progranulin (PGRN)
Assay: progranulin induction cellular assay (PGRN assay), ELISA-based readout
Settings: PGRN assay as described: mouse primary microglia, primary cortical neurons and BV-2 cell lines; secreted mouse PGRN in medium by ELISA; cell type for Table B not specified
Method: Cellular Assays: To measure the efficacy of compounds, a progranulin induction cellular assay in mouse primary microglia (pMG), primary cortical neurons, and BV-2 cell lines is used. BV-2 cells are split the day before plating into a 96 well plate format at approximately 80%. Cells should be plated the day before and allowed for 1 hour attachment period and for 16 hour incubation. Levels of progranulin secreted into the cell culture medium or retained in the cell lysate can be quantified using an ELISA-based readout and measurement of secreted mouse PGRN in the medium was assessed by the methodology published by Ghidoni et al. 2012. Standard ELISA kits to measure PGRN are available from vendors such as Adipogen, R&D, and Biovendor.
Table B below presents the results of a PGRN assay as described above.

Row | EC50 [nM] | Structure (SMILES)
1 | 1610 | NC12CC(NC(=O)N3CCc4ccccc4[C@@H]3c3ccccc3)(C1)C2 [Compound 4135, (S)—N-(3-aminobicyclo[1.1.1]pentan-1-yl)-1-phenyl-3,4-dihydroisoquinoline-2(1H)-carboxamide]
2 | 900 | CN[C@H]1C[C@H](NC(=O)N2CCc3ccccc3[C@@H]2c2ccc(F)cc2)C1 [Compound 4043, (S)-1-(4-fluorophenyl)-N-(trans-3-(methylamino)cyclobutyl)-3,4-dihydroisoquinoline-2(1H)-carboxamide hydrochloride]
3 | 1690 | N[C@@H]1CC[C@@H]1OC(=O)N1CCc2ccccc2[C@@H]1c1ccc(F)cc1 (single isomer, unassigned) [Compound 4038]
4 | 5590 | NC12CC(NC(=O)N3CCc4ccccc4C3c3ccc(F)cc3F)(C1)C2 (single isomer, unassigned) [Compound 4138, N-(3-aminobicyclo[1.1.1]pentan-1-yl)-1-(2,4-difluorophenyl)-3,4-dihydroisoquinoline-2(1H)-carboxamide]
5 | 208 | N[C@H]1C[C@H](CC(=O)N2CCc3ccccc3[C@@H]2c2ccc(F)cc2)C1 [Compound 4122]
6 | 1120 | N[C@H]1C[C@H](OC(=O)N2CCc3ccccc3[C@@H]2c2ccc(F)cc2)C1 [Compound 4036, Trans-3-aminocyclobutyl (S)-1-(4-fluorophenyl)-3,4-dihydroisoquinoline-2(1H)-carboxylate hydrochloride]
7 | > 10000 | NC[C@H]1C[C@@H](NC(=O)N2CCc3ccccc3[C@@H]2c2ccc(F)cc2)C1 [Compound 4032, (S)—N-(cis-3-(aminomethyl)cyclobutyl)-1-(4-fluorophenyl)-3,4-dihydroisoquinoline-2(1H)-carboxamide]
8 | > 10000 | NC[C@H]1C[C@H](OC(=O)N2CCc3ccccc3[C@@H]2c2ccc(F)cc2)C1 [Compound 4031, Trans-3-(aminomethyl)cyclobutyl (S)-1-(4-fluorophenyl)-3,4-dihydroisoquinoline-2(1H)-carboxylate]
9 | > 10000 | N[C@H]1CC[C@H]1OC(=O)N1CCc2ccccc2[C@@H]1c1ccc(F)cc1 (single isomer, unassigned) [Compound 4037]
10 | 131 | N[C@H]1C[C@@H](OC(=O)N2CCc3ccccc3[C@@H]2c2ccc(F)cc2)C1 [Compound 4155, cis-3-aminocyclobutyl (S)-1-(4-fluorophenyl)-3,4-dihydroisoquinoline-2(1H)-carboxylate]
11 | 864 | N[C@H]1CC[C@H]1COC(=O)N1CCc2ccccc2[C@@H]1c1ccc(F)cc1 [Compound 4133, ((1R,2S)-2-aminocyclobutyl)methyl (S)-1-(4-fluorophenyl)-3,4-dihydroisoquinoline-2(1H)-carboxylate]
12 | > 2100 | NC[C@@H]1CC[C@H]1OC(=O)N1CCc2ccccc2[C@@H]1c1ccc(F)cc1 [Compound 4123]
13 | > 10000 | CS(=O)(=O)CCNC12CC(N(CCS(C)(=O)=O)C(=O)N3CCc4ccccc4[C@@H]3c3ccc(F)cc3)(C1)C2 [Compound 4008, (S)-1-(4-fluorophenyl)-N-(2-(methylsulfonyl)ethyl)-N-(3-((2-(methylsulfonyl)ethyl)amino)bicyclo[1.1.1]pentan-1-yl)-3,4-dihydroisoquinoline-2(1H)-carboxamide]
14 | 334 | NC1CCC1COC(=O)N1CCc2ccccc2[C@@H]1c1ccc(F)cc1 (stereo in doubt) [Compound 4062, ((1R,2R)-2-aminocyclobutyl)methyl (S)-1-(4-fluorophenyl)-3,4-dihydroisoquinoline-2(1H)-carboxylate]
15 | 319 | CN(C)[C@H]1C[C@H](OC(=O)N2CCc3ccccc3[C@@H]2c2ccc(F)cc2)C1 [Compound 4128]
16 | 440 | NC12CC(OC(=O)N3CCc4ccccc4[C@@H]3c3ccc(F)cc3)(C1)C2 [Compound 4001, 3-Aminobicyclo[1.1.1]pentan-1-yl (S)-1-(4-fluorophenyl)-3,4-dihydroisoquinoline-2(1H)-carboxylate]
17 | 359 | N[C@@H]1CC[C@@H]1CNC(=O)N1CCc2ccccc2[C@@H]1c1ccc(F)cc1 [Compound 4131]
18 | 318 | CCN[C@H]1C[C@@H](OC(=O)N2CCc3ccccc3[C@@H]2c2ccc(F)cc2)C1 [Compound 4129]
19 | 610 | CN[C@H]1C[C@@H](NC(=O)N2CCc3ccccc3[C@@H]2c2ccc(F)cc2)C1 [Compound 4066]
20 | 1090 | CC(C)(OC(=O)N1CCc2ccccc2C1c1ccc(F)cc1)C12CC(N)(C1)C2 [Compound 4048, 2-(3-Aminobicyclo[1.1.1]pentan-1-yl)propan-2-yl (S)-1-(4-fluorophenyl)-3,4-dihydroisoquinoline-2(1H)-carboxylate]
21 | 370 | N[C@H]1C[C@@H](NC(=O)N2CCc3ccccc3[C@@H]2c2ccc(F)cc2)C1 [Compound 4034, (S)—N-(cis-3-aminocyclobutyl)-1-(4-fluorophenyl)-3,4-dihydroisoquinoline-2(1H)-carboxamide]
22 | > 10000 | CS(=O)(=O)NC12CC(NC(=O)N3CCc4ccccc4[C@@H]3c3ccc(F)cc3)(C1)C2 [Compound 4017, (S)-1-(4-fluorophenyl)-N-(3-(methylsulfonamido)bicyclo[1.1.1]pentan-1-yl)-3,4-dihydroisoquinoline-2(1H)-carboxamide]
23 | 160 | CN(C(=O)N1CCc2ccccc2[C@@H]1c1ccc(F)cc1)[C@H]1C[C@H](N)C1 [Compound 4055, (S)—N-((trans)-3-aminocyclobutyl)-1-(4-fluorophenyl)-N-methyl-3,4-dihydroisoquinoline-2(1H)-carboxamide]
24 | 280 | CN(C)[C@H]1C[C@H](CC(=O)N2CCc3ccccc3[C@@H]2c2ccc(F)cc2)C1 [Compound 4125]
25 | 604 | NC12CC(OC(=O)N3CCc4ccccc4[C@@H]3c3ccccc3)(C1)C2 [Compound 4136, 3-aminobicyclo[1.1.1]pentan-1-yl (S)-1-phenyl-3,4-dihydroisoquinoline-2(1H)-carboxylate]
26 | > 10000 | O=C(OC12CC(N3CCOCC3)(C1)C2)N1CCc2ccccc2[C@@H]1c1ccc(F)cc1 [Compound 4049, 3-Morpholinobicyclo[1.1.1]pentan-1-yl (S)-1-(4-fluorophenyl)-3,4-dihydroisoquinoline-2(1H)-carboxylate hydrochloride]
27 | 1750 | CNC12CC(CC(=O)N3CCc4ccccc4C3c3ccc(F)cc3)(C1)C2 [Compound 4057, (S)-1-(1-(4-fluorophenyl)-3,4-dihydroisoquinolin-2(1H)-yl)-2-(3-(methylamino)bicyclo[1.1.1]pentan-1-yl)ethan-1-one]
28 | 79 | NC[C@H]1C[C@@H](C(=O)N2CCc3ccccc3[C@@H]2c2ccc(F)cc2)C1 [Compound 4150, (cis-3-(aminomethyl)cyclobutyl)((S)-1-(4-fluorophenyl)-3,4-dihydroisoquinolin-2(1H)-yl)methanone]
29 | 201 | N[C@@H]1C[C@H](NC(=O)N2CCc3ccccc3[C@@H]2c2ccc(F)cc2)CC(F)(F)C1 (single isomer, unassigned) [Compound 4141]
30 | 120 | C[C@]1(NC(=O)N2CCc3ccccc3[C@@H]2c2ccc(F)cc2)C[C@@H](N)C1 [Compound 4054, (S)—N-((cis)-3-amino-1-methylcyclobutyl)-1-(4-fluorophenyl)-3,4-dihydroisoquinoline-2(1H)-carboxamide]
